Here are results for seven compounds from US9439918B2 (priority 2008, dated 2016).

Values after ≈ are worked out from the molar mass of the structure shown. A value given as a limit tells only on which side of the number the result lay.

The test system of test [1] is Shigella spp. (40). In words: MIC, CLSI broth microdilution. The note with it: for % by category resistant / % by category susceptible: CLSI 2008 criteria. In kind it is cell-based. (In general: Dilution methods test growth across graded concentrations, often in twofold steps.)
For test [2], the system named is Salmonella spp. (20). As to the kind of experiment: MIC, CLSI broth microdilution. As to conditions: for % by category resistant / % by category susceptible: CLSI 2008 criteria; for MIC50 / MIC90: Salmonella. The test is classed as cell-based.
Test [3] relates to H. pylori (23). In words: MIC, agar dilution / Etest. As to conditions: for MIC50: Helicobacter pylori, read-out: MIC 50% (Etest). (In agar dilution, organisms are placed on agar that contains the substance at set levels.)
The subject of test [4] is intraphagocytic L. pneumophila ATCC 33153. In kind it is cell-based, Legionella pneumophila. The note with it: L.p., intracellular.
Test [5] concerns C. jejuni (20). In words: MIC, agar dilution / Etest.

On to `C[C@H]1COc2c(N3CCN(C)CC3)c(F)cc3c(=O)c(C(=O)O)cn1c23` [Levofloxacin, levofloxacin], for which, in test [1], the “% by category resistant” value is 0.0% and the “% by category susceptible” value is on record as 100.0%. Further, in test [1] (Shigella spp., 40 strains), the MIC50 was ≤ 0.12 µg/mL and the MIC90 was ≤ 0.12 µg/mL. Also, in test [2], the “% by category resistant” value worked out at 0.0%, the “% by category susceptible” value is listed as 95.0%, the MIC50 is ≤ 0.12 µg/mL and the MIC90 turned out to be 1 µg/mL (≈ 2.77 µM).

`Cc1ncc([N+](=O)[O-])n1CCO` [Metronidazole]: in test [3] (H. pylori, eight strains, Etest), the “MIC Range (Etest)” value lay within 0.06 to 64 µg/mL. Also, in test [3], the MIC50 was determined as 0.5 µg/mL (≈ 2.92 µM).

For the compound `CC[C@H]1OC(=O)[C@H](C)C(=O)[C@H](C)[C@@H](O[C@@H]2O[C@H](C)C[C@H](N(C)C)[C@H]2O)[C@](C)(OC)C[C@@H](C)C(=O)[C@H](C)[C@H]2N(CCCCn3cnc(-c4cccnc4)c3)C(=O)O[C@]12C` [TEL, telithromycin], the “Emax, Δ log10 CFU at 24 h compared to the post-phagocytosis inoculum” value in test [4] is −0.63 Δ log10 CFU. Further, the MIC50 was found to be 16 µg/mL (≈ 19.7 µM) in test [1] (Shigella spp., 40 strains) and 8 µg/mL (≈ 9.85 µM) in test [2]. In addition, the MIC90 in test [1] (Shigella spp., 40 strains) is 16 µg/mL (≈ 19.7 µM); in test [2] it was > 16 µg/mL.

Regarding `CN(C)[C@@H]1C(O)=C(C(N)=O)C(=O)[C@@]2(O)C(O)=C3C(=O)c4c(O)cccc4[C@@](C)(O)[C@H]3C[C@@H]12` [Tetracycline], the “MIC Range (Etest)” value in test [5] (C. jejuni, 20 strains, Etest) lay within 0.06 to 256 µg/mL. For the same compound, the MIC50 in test [5] (Campylobacter jejuni, read-out: MIC 50% (Etest)) was determined as 64 µg/mL (≈ 144 µM); in test [3] it was 0.06 µg/mL (≈ 0.135 µM). Moreover, in test [5] (Campylobacter jejuni, read-out: MIC 90% (Etest)), the MIC90 was > 256 µg/mL.

For Amoxicillin-clavulanate, in test [1], the “% by category resistant” value was found to be 0.0% and the “% by category susceptible” value was 72.5%. In test [1] (Shigella spp., 40 strains), the “MIC 50%” value worked out at 8 µg/mL and the “MIC 90%” value was >8 µg/mL. Also, in test [2], the “% by category resistant” value is given as 0.0% and the “% by category susceptible” value is listed as 95.0%. In test [2] (Salmonella spp., 20 strains), the “MIC 50%” value was 2 µg/mL and the “MIC 90%” value worked out at 8 µg/mL.

For the compound Quinupristin-dalfopristin, in test [1] (Shigella spp., 40 strains), the “MIC 50%” value was >4 µg/mL, the “MIC 90%” value is >4 µg/mL and the “MIC Range” value was >4 µg/mL. Also, in test [2] (Salmonella spp., 20 strains), the “MIC 50%” value was >4 µg/mL and the “MIC 90%” value is >4 µg/mL.

Turning to “Trimethoprim-sulfamethoxazole [Trim-sulfa]”, in test [1], the “% by category resistant” value came to 62.5% and the “% by category susceptible” value worked out at 37.5%. In addition, in test [1] (Shigella spp., 40 strains), the “MIC 50%” value is >4 µg/mL and the “MIC 90%” value was >4 µg/mL. Besides, in test [2], the “% by category resistant” value is 0.0% and the “% by category susceptible” value was determined as 100.00%. Besides, in test [2] (Salmonella spp., 20 strains), the “MIC 50%” value is “≦0.25 μg/ml”, the “MIC 90%” value was “≦0.25 μg/ml” and the “MIC Range” value was “≦0.25 μg/ml”.
